In BindingDB's records for patent US20240067645 (Lg Chem, 2024):

Molecular target: Diacylglycerol kinase alpha (Homo sapiens, UniProt P23743)
Experiment: Inhibitory Effect Against DGKalpha Enzyme
Protocol: First, 3×OAG (3 mM)/ATP (0.45 mM) substrate solution was prepared from 1× substrate assay buffer (40 mM MOPS (pH 7.2), 20 mM MgCl2, 1 mM DTT, 0.4 mM CaCl2), 3 mM sodium deoxycholate, 100 mM NaCl, 0.1 mg/mL BSA, 0.12% NP-40), and vortexed thoroughly for 3 minutes to induce detergent-lipid micelle formation. Then, 3×DGKα (7.5 nM) enzyme solution was prepared from 2× enzyme assay buffer (80 mM MOPS (pH 7.2), 2 mM DTT, 200 mM NaCl, 0.2 mg/mL BSA) and vortexed for a short time. After preparing the above two solutions, a half-area opaque 96-well assay plate was prepared, and 10 μL of 3× diluted compound solution (30 μM to 0 μM) was transferred to each well. Next, 10 μL of 3×DGK enzyme solution was transferred to the same plate, mixed by pipetting, and then 10 μL of 3×OAG/ATP substrate solution was added to the assay plate and mixed well. The plate was incubated at room temperature for 20 minutes for the enzyme reaction. Next, 15 μL of ADP-Glo reagent was added to each well and mixed by pipetting, followed by incubating the plate at room temperature for 40 minutes to deplete the remaining ATPs. After this step, 30 μL of kinase detection reagent was added and mixed, and the plate was incubated at room temperature for an additional 20 minutes and luminescence was measured by Envision to calculate the IC50 value of each compound.

Chain of Diacylglycerol kinase alpha (P23743 whole entry): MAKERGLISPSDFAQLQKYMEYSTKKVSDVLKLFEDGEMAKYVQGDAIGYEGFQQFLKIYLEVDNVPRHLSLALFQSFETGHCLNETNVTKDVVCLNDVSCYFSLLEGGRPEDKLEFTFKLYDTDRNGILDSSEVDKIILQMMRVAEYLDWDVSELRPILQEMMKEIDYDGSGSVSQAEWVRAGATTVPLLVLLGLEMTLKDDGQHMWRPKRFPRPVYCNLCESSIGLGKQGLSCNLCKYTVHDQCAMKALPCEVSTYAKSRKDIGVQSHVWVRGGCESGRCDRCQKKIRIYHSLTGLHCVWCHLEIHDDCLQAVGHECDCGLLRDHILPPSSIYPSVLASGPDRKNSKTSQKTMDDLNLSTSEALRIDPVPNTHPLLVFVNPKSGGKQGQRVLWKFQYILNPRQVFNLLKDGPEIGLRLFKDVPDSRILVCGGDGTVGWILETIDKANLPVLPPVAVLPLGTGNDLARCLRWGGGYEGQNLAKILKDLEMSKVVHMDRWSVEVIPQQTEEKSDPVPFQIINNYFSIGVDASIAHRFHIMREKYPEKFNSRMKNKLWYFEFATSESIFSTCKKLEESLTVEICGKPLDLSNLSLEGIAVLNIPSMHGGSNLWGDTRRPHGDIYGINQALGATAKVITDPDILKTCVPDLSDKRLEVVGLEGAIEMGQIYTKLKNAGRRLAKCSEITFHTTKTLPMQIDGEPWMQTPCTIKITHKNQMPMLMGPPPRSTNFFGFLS

Row | IC50 [nM] | Structure (SMILES)
1 | < 300 | Cn1c(=O)c(=O)n(C2CCN(Cc3ccc(OC(F)(F)F)c(Cl)c3)CC2)c2ncc(Cl)cc21 [US20240067645, Example 43]
2 | < 300 | Cn1c(=O)c(=O)n(C2CCN(Cc3ccc(F)c(Cl)c3)CC2)c2ncc(Cl)cc21 [US20240067645, Example 42]
3 | < 300 | Cn1c(=O)c(=O)n(C2CCN(Cc3cccc(Cl)c3)CC2)c2ncc(Cl)cc21 [US20240067645, Example 27]
4 | < 300 | Cn1c(=O)c(=O)n(C2CCN(Cc3cccc4c(Cl)cccc34)CC2)c2ncc(Cl)cc21 [US20240067645, Example 35]
5 | < 300 | Cn1c(=O)c(=O)n(C2CCN(Cc3ccc(OC(F)(F)F)cc3)CC2)c2ncc(Br)cc21 [US20240067645, Example 34]
